Laboratory results taken from patent EP0556947A1, “Use of M1-selective antimuscarinic pyridobenzodiazepinones for the treatment and prevention of axial myopia” (MERCK & CO. INC., priority 1992, dated 1993).
Like-named read-outs stand apart in the source and are kept apart here.

Key:
[1] = tested on: axial enlargement of the eye; conditions: ocular administration under image deprivation; cited from earlier work
[2] = tested on: female Dunkin Hartley albino guinea pigs; experiment: guinea pig maximization test (sensitization); format: in vivo; conditions: challenge phase, readings on days 24 and 25
Procedure: The guinea pig maximization test is required by the U.S. Food and Drug Administration of all drugs intended for ophthalmic administration. […] In Phase I, which is the induction phase, on day 1 two intradermal injections at the highest generally tolerated concentration of the test material were administered in the shaved intercapsular area (O.1ml of the test agent in a 50:50 mixture of Freund's complete adjuvant and distilled water). On day 7, approximately 400mg of a mixture of 10% sodium laurel sulfate in petrolatum was applied to the shaved intercapsular area. On day 8, 400mg of a mixture of the test compound in petrolatum was applied, on a 2 x 4 cm piece of Whatman paper to the shaved intercapsular area, along with Blenderm tape.
In Phase II, which is the challenge phase, on day 22, 200mg of petrolatum was applied to the shaved right flank, while 200mg of test compound at the highest non-irritant concentration (micronized in petrolatum) was applied to the shaved left flank, with each application being occluded for 24 hours.

M₃ receptors = target: T1, M₃ receptors (Oryctolagus cuniculus, UniProt G1U308); experiment: ³H-QNB radioligand binding assay, rabbit iris + ciliary body (minus ciliary processes)
T1 construct: M₃ receptors in rabbit iris + ciliary body; from tissue; host or cells: rabbit iris + ciliary body (minus ciliary processes)
T1 sequence (G1U308 1-599): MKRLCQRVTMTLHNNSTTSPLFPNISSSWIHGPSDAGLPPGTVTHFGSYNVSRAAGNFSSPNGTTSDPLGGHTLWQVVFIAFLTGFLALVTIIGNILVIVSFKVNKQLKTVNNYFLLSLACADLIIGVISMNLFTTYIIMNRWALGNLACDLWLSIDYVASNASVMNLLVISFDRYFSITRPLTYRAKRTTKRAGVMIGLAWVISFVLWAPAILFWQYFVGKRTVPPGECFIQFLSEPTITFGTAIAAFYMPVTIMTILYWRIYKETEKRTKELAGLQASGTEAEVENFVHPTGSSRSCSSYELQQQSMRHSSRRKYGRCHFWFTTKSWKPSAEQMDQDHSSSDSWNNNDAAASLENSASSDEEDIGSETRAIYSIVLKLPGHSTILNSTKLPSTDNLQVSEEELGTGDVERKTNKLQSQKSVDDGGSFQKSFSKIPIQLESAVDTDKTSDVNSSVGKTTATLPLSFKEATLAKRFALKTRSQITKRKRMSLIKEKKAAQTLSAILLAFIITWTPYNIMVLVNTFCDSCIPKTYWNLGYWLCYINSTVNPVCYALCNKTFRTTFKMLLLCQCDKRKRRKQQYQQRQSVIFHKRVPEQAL

Form-deprivation myopia = experiment: form-deprivation myopia model in chicks (eyelid suture); format: in vivo, White Leghorn chicks; conditions: expected from M₁ potency relative to pirenzepine; no data reported
Procedure: Form-deprivation myopia is induced in day-old White Leghorn chicks under aseptic conditions and other anesthesia by eyelid suture to one eye. The chicks are maintained on a 12-hour light:dark cycle. […] Drug is injected daily subconjunctivally during the light cycle. At two weeks of age the animals are sacrificed and axial and equatorial dimensions of unfixed eyes are measured with vernier calipers independently by two observers.

M₁ receptors = target: T2, M₁ receptors (Rattus norvegicus, UniProt P08482); experiment: ³H-pirenzepine radioligand binding assay, rat cerebral cortex; conditions: for selectivity for M₁ than for M₃ receptors: M₁ (rat cerebral cortex) versus M₃ (rabbit iris + ciliary body) binding; for Ki: read-out: M1 Ki
T2 construct: M₁ receptors in rat cerebral cortex were labeled with ³H-pirenzepine; from tissue; host or cells: rat cerebral cortex
T2 sequence (P08482 1-460): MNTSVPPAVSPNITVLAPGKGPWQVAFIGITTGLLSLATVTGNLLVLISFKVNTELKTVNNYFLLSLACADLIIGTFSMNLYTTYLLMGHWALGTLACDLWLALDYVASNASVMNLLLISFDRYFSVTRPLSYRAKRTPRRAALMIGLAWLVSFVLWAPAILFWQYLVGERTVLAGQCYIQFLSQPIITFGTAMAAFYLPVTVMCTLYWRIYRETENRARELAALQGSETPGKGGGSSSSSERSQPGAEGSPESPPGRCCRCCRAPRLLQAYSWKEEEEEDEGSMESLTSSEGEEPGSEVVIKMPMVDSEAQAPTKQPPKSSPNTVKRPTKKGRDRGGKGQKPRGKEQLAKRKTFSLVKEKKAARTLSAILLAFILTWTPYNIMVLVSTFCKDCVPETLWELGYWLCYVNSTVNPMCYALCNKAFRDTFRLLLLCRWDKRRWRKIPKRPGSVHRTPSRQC

M₂ receptors = target: T3, M₂ receptors (Rattus norvegicus, UniProt P10980); experiment: ³H-AFDX-384 radioligand binding assay, rat heart; conditions: ³H AFDX-384 binding; for Ki: mean of 3-7 determinations ± SEM, read-out: M2 Ki
T3 construct: ³H-AFDX-384 labeled M₂ receptors in rat heart; from tissue; host or cells: rat heart
T3 sequence (P10980 1-466): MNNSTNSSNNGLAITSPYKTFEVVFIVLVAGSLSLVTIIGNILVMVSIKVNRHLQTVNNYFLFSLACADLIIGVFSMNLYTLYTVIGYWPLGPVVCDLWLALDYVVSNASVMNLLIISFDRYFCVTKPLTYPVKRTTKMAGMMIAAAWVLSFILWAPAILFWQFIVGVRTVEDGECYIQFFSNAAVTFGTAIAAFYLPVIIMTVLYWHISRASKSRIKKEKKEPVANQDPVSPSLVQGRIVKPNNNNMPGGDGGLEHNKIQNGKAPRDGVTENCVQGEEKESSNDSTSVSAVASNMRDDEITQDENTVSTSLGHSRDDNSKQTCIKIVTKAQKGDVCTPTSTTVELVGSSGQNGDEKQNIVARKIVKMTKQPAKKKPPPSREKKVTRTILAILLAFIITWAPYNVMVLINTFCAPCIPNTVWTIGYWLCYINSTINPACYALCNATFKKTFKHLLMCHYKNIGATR

myopia = conditions: 1.0% atropine applied topically at bedtime, treated eye, one year per eye; cited from earlier work
[3] = ³H-QNB binding, rabbit iris + ciliary body (minus ciliary processes)
[4] = ³H-QNB binding, rabbit iris + ciliary body (minus ciliary processes), mean of 3-7 determinations ± SEM, read-out: M3 Ki
[5] = ³H Pirenzepine binding, rat cerebral cortex

In the case of CN1CCc2cccc3c2[C@H]1Cc1ccc(O)c(O)c1-3 [apOmorphine], the “axial enlargement of the eye” value [1] is listed as “inhibit or actually prevent”.
In the case of CN1CCC(C(=O)N2c3ccccc3C(=O)Nc3cccnc32)CC1 [Nuvenzepine, 11-(1-Methylpiperidin-4-carbonyl)-5,11-dihydro-6H -pyrido[2,3-b][1,4]benzodiazepin-6-one], the “grade of skin reaction” value ([2]; in any test animal) is reported as 0, the “M3 nH (Hill Coefficient)” value (M₃ receptors; [3]) is reported as 0.80 and the Ki (M₃ receptors; [4]) is reported as 29.7 nM. The “effectiveness in myopia therapy” value (Form-deprivation myopia) was “at least as effective as pirenzepine”, the “selectivity for M₁ than for M₃ receptors” value (M₁ receptors) was 20 fold and the Ki (M₁ receptors) was 1.5 nM. For the same molecule, the “M1 nH (Hill Coefficient)” value (M₁ receptors; [5]) was 0.9, the “M2 nH (Hill Coefficient)” value (M₂ receptors) was 1.03 and the Ki (M₂ receptors) was 248 nM.
For CN1CCCC(C(=O)N2c3ccccc3C(=O)Nc3cccnc32)C1 (centres unmarked) [Rispenzepine, 11-(1-Methylpiperidin-3-carbonyl)-5,11-dihydro-6H -pyrido[2,3-b][1,4]benzodiazepin-6-one], the “grade of skin reaction” value ([2]; in any test animal) was 0, the “M3 nH (Hill Coefficient)” value (M₃ receptors; [3]) was 0.84 and the Ki (M₃ receptors; [4]) was 38.9 nM. The “effectiveness in myopia therapy” value (Form-deprivation myopia) was “at least as effective as pirenzepine”, the “selectivity for M₁ than for M₃ receptors” value (M₁ receptors) was 15 fold and the Ki (M₁ receptors) was 2.61 nM. The “M1 nH (Hill Coefficient)” value (M₁ receptors; [5]) was 0.9, the “M2 nH (Hill Coefficient)” value (M₂ receptors) was 1.00 and the Ki (M₂ receptors) was 226 nM.
In the case of CN1CCN(CC(=O)N2c3ccccc3C(=O)Nc3cccnc32)CC1 [Pirenzepine, reference compound], the “grade of skin reaction” value ([2]; in six of nine animals) is reported as 1 and the “grade of skin reaction” value ([2]; in two of nine animals) is reported as 2.
In the case of CN1[C@@H]2CC[C@H]1C[C@@H](OC(=O)C(CO)c1ccccc1)C2 (some centres unmarked) [Atropine, reference compound], the Ki (M₃ receptors) is given as 0.37 nM, the “M3 nH (Hill Coefficient)” value (M₃ receptors; [3]) is given as 1.1 and the “progression of the myopia” value (myopia) is given as “halted”. For the same molecule, the “M1 nH (Hill Coefficient)” value (M₁ receptors) was 1.5 and the “M2 nH (Hill Coefficient)” value (M₂ receptors) was 1.05.
